According to US12275684B2, “Methods for making and using endoxifen” (Atossa Therapeutics, Inc., priority 2017, dated 2025):
Where two headings read alike, the source gives them in different places.

Test: Placebo controlled, dose escalation pharmacokinetic study of oral (Z)-Endoxifen capsules (serum endoxifen; incl. accumulation ratios and dose linearity)
Assay type: in vivo, human
Set-up: Serum concentration, Maximum / Serum concentration, GeoMean / Serum concentration, Mean / Serum concentration, Median / terminal rate constant: unit not given here
Conditions: for Serum concentration, GeoMean / Serum concentration, Maximum / Serum concentration, Mean / Serum concentration, Median / Serum concentration, Minimum: 2 mg (n = 6)
Text: An objective of the study was to assess the safety and tolerability of oral (Z)-Endoxifen when administered […] orally as a capsule to healthy female volunteers. A secondary objective was to assess the pharmacokinetics of multiple doses of oral (Z)-Endoxifen in the subjects.
Generally, healthy female volunteers aged ≥18 years and ≤65 years were enrolled. 24 participants were enrolled in 3 cohorts and will be administered study drug orally. Three dose levels of orally administered (Z)-Endoxifen were investigated in 3 cohorts. In each cohort participants were randomized to receive an oral (Z)-Endoxifen or placebo in a blinded fashion. Enteric-resistant capsules used in the study were designed as delayed release capsules to resist rupture for at least 30 minutes, but typically, for about 2 hours, under gastric conditions and then open fully in intestinal fluid (DRCaps; Capsugel, a Lonza Company, USA). Enteric-resistant (Swedish Orange size Zero (0); Capsugel, USA) DRCaps capsules manually filled with 1, 2 or 4 mg of (Z)-endoxifen neat in compliance with GMP requirements were used. Placebo capsules contained microcrystalline cellulose an inert common capsule and tablet excipient.
Each cohort enrolled 8 participants, with 6 participants receiving (Z)-Endoxifen 1 mg capsules orally at 1 mg (Cohort 1), 2 mg (Cohort 2) or 4 mg (Cohort 3) doses and 2 participants receiving matching placebo capsules. In Cohort 1 (Dose Level=1 mg) two participants (sentinels) were dosed 24 hours prior to the remaining participants. One sentinel was dosed with (Z)-Endoxifen and the other with placebo. The remaining six participants in Cohort 1 were dosed as no safety concerns were identified in the sentinel participants. The non-sentinel participants in Cohort 1 were admitted to the clinical research facility at least one day later than the sentinels. There were no sentinels in Cohorts 2 and 3.
Participant engagement in this study was for a period of 56 days. These included a 28 day screening period, and a 7 day post treatment period for Pharmacokinetic (PK) sampling. There were two confinement periods, one at the beginning and one at the end of the dosing periods. Participants were confined to the clinical facility on Days-1 through to Day 2 and Days 21 and 22. If participants were to experience any clinically significant adverse events during the study, they would have been required to remain in the clinical facility for further observation at the discretion of the Principal Investigator (PI).
Healthy female volunteers were screened within 28 days prior to commencement of dosing. Participants were admitted to the clinical facility on Day-1 for up to 3 days. The first dose of (Z)-Endoxifen or placebo capsules was administered on Day 1. Following completion of all safety assessments and sampling for PK analyses, participants were discharged from the clinical facility on Day 2. The first dose on Day 1 was followed by a 6-day treatment free period (Days 2-7). Each participant returned to the clinical facility for PK blood draws and safety assessments during the treatment free period on study Days 4 and 6. On Day 8 participants commenced daily administration of (Z)-Endoxifen capsules or placebo capsules for 14 consecutive days (Days 8-21). Participants were supplied with study drug capsules and asked to self administer daily. Participants visited the clinical facility on Days 11, 14 and 17, prior to dose administration, for PK blood draws and safety assessments. On the morning of Day 21 each participant returned to the clinical facility prior to dose administration and were confined to the facility until Day 22 to allow for the collection of PK blood draws and safety assessments. The Day 21 dose was the last administration of study drug. Participants were discharged from the clinical facility on Day 22 and returned for PK blood draws and safety assessments on study Days 24, 26, and 28. […]

- concentration at 10 h (1 mg, Day 1 Pre-dose, read-out: Serum concentration, GeoMean): 2.68 nM
- concentration at 10 h (1 mg, Day 1 Pre-dose, read-out: Serum concentration, Max): 2.68 nM
- concentration at 10 h (1 mg, Day 1 Pre-dose, read-out: Serum concentration, Mean): 2.68 nM
- concentration at 10 h (1 mg, Day 1 Pre-dose, read-out: Serum concentration, Median): 2.68 nM
- concentration at 10 h (1 mg, Day 1 Pre-dose, read-out: Serum concentration, Min): 2.68 nM
- concentration at 10 h (1 mg, Day 8 Pre-dose, read-out: Serum concentration, GeoMean): 2.68 nM
- concentration at 10 h (1 mg, Day 8 Pre-dose, read-out: Serum concentration, Max): 2.68 nM
- concentration at 10 h (1 mg, Day 8 Pre-dose, read-out: Serum concentration, Mean): 2.68 nM
- concentration at 10 h (1 mg, Day 8 Pre-dose, read-out: Serum concentration, Median): 2.68 nM
- concentration at 10 h (1 mg, Day 8 Pre-dose, read-out: Serum concentration, Min): 2.68 nM
- concentration at 10 h (1 mg, Day 11 Pre-Dose, read-out: Serum concentration, GeoMean): 37.7 nM
- concentration at 10 h (1 mg, Day 11 Pre-Dose, read-out: Serum concentration, Max): 45.5 nM
- concentration at 10 h (1 mg, Day 11 Pre-Dose, read-out: Serum concentration, Mean): 38.5 nM
- concentration at 10 h (1 mg, Day 11 Pre-Dose, read-out: Serum concentration, Median): 42.8 nM
- concentration at 10 h (1 mg, Day 11 Pre-Dose, read-out: Serum concentration, Min): 26.8 nM
- concentration at 10 h (1 mg, Day 14 Pre-dose, read-out: Serum concentration, GeoMean): 37.6 nM
- concentration at 10 h (1 mg, Day 14 Pre-dose, read-out: Serum concentration, Max): 75.0 nM
- concentration at 10 h (1 mg, Day 14 Pre-dose, read-out: Serum concentration, Mean): 43.4 nM
- concentration at 10 h (1 mg, Day 14 Pre-dose, read-out: Serum concentration, Median): 40.2 nM
- concentration at 10 h (1 mg, Day 14 Pre-dose, read-out: Serum concentration, Min): 13.4 nM
- concentration at 10 h (1 mg, Day 17 Pre-Dose, read-out: Serum concentration, GeoMean): 38.5 nM
- concentration at 10 h (1 mg, Day 17 Pre-Dose, read-out: Serum concentration, Max): 64.2 nM
- concentration at 10 h (1 mg, Day 17 Pre-Dose, read-out: Serum concentration, Mean): 43.4 nM
- concentration at 10 h (1 mg, Day 17 Pre-Dose, read-out: Serum concentration, Median): 45.5 nM
- concentration at 10 h (1 mg, Day 17 Pre-Dose, read-out: Serum concentration, Min): 13.4 nM
- Serum concentration, GeoMean (Day 1 Pre-dose): 1.00
- Serum concentration, Maximum (Day 1 Pre-dose): 1.00
- Serum concentration, Mean (Day 1 Pre-dose): 0.17
- Serum concentration, Median (Day 1 Pre-dose): 0.00
- Serum concentration, Minimum (Day 1 Pre-dose): 0.00
- Serum concentration, GeoMean (Day 4 Hr 72): 5.47
- Serum concentration, Maximum (Day 4 Hr 72): 8.00
- Serum concentration, Mean (Day 4 Hr 72): 5.67
- Serum concentration, Median (Day 4 Hr 72): 5.50
- Serum concentration, GeoMean (Day 6 Hr 120): 2.55
- Serum concentration, Maximum (Day 6 Hr 120): 4.00
- Serum concentration, Mean (Day 6 Hr 120): 2.80
- Serum concentration, Median (Day 6 Hr 120): 3.00
- Serum concentration, GeoMean (Day 8 Pre-dose): 1.00
- Serum concentration, Maximum (Day 8 Pre-dose): 1.00
- Serum concentration, Mean (Day 8 Pre-dose): 0.83
- Serum concentration, Median (Day 8 Pre-dose): 1.00
- Serum concentration, GeoMean (Day 11 Pre-Dose): 22.6
- Serum concentration, Maximum (Day 11 Pre-Dose): 28.0
- Serum concentration, Mean (Day 11 Pre-Dose): 22.8
- Serum concentration, Median (Day 11 Pre-Dose): 22.5
- Serum concentration, GeoMean (Day 14 Pre-dose): 28.9
- Serum concentration, Maximum (Day 14 Pre-dose): 37.0
- Serum concentration, Mean (Day 14 Pre-dose): 29.2
- Serum concentration, Median (Day 14 Pre-dose): 28.5
- Serum concentration, GeoMean (Day 17 Pre-Dose): 31.5
- Serum concentration, Maximum (Day 17 Pre-Dose): 47.0
- Serum concentration, Mean (Day 17 Pre-Dose): 32.2
- Serum concentration, Median (Day 17 Pre-Dose): 29.5
- Serum concentration, Maximum (Day 1 hr 0.5): 0.00
- Serum concentration, Mean (Day 1 hr 0.5): 0.00
- Serum concentration, Median (Day 1 hr 0.5): 0.00
- Serum concentration, GeoMean (Day 1 hr 1): 2.35
- Serum concentration, Maximum (Day 1 hr 1): 4.00
- Serum concentration, Mean (Day 1 hr 1): 2.17
- Serum concentration, Median (Day 1 hr 1): 2.50
- Serum concentration, GeoMean (Day 1 hr 2): 9.55
- Serum concentration, Maximum (Day 1 hr 2): 16.0
- Serum concentration, Mean (Day 1 hr 2): 10.2
- Serum concentration, Median (Day 1 hr 2): 10.0
- Serum concentration, GeoMean (Day 1 hr 3): 14.3
- Serum concentration, Maximum (Day 1 hr 3): 17.0
- Serum concentration, Mean (Day 1 hr 3): 14.5
- Serum concentration, Median (Day 1 hr 3): 14.5
- Serum concentration, GeoMean (Day 1 hr 4): 16.6
- Serum concentration, Maximum (Day 1 hr 4): 22.0
- Serum concentration, Mean (Day 1 hr 4): 17.2
- Serum concentration, Median (Day 1 hr 4): 17.5
- Serum concentration, GeoMean (Day 1 hr 5): 16.8
- Serum concentration, Maximum (Day 1 hr 5): 22.0
- Serum concentration, Mean (Day 1 hr 5): 17.2
- Serum concentration, Median (Day 1 hr 5): 17.0
- Serum concentration, GeoMean (Day 1 hr 8): 13.8
- Serum concentration, Maximum (Day 1 hr 8): 19.0
- Serum concentration, Mean (Day 1 hr 8): 14.3
- Serum concentration, Median (Day 1 hr 8): 14.5
- Serum concentration, GeoMean (Day 1 hr 10): 14.2
- Serum concentration, Maximum (Day 1 hr 10): 19.0
- Serum concentration, Mean (Day 1 hr 10): 14.5
- Serum concentration, Median (Day 1 hr 10): 14.5
- Serum concentration, GeoMean (Day 1 hr 12): 14.1
- Serum concentration, Maximum (Day 1 hr 12): 18.0
- Serum concentration, Mean (Day 1 hr 12): 14.2
- Serum concentration, Median (Day 1 hr 12): 14.0
- Serum concentration, Minimum (Day 1 hr 12): 12.0
- Serum concentration, GeoMean (Day 1 hr 24): 10.1
- Serum concentration, Maximum (Day 1 hr 24): 13.0
- Serum concentration, Mean (Day 1 hr 24): 10.3
- Serum concentration, Median (Day 1 hr 24): 10.5
- AUC0-inf, Max (Day 1, 1 mg, N = 5): 739 ng·h/mL
- AUC0-inf, Min (Day 1, 1 mg, N = 5): 441 ng·h/mL
- AUC24hr, Max (Day 1, 1 mg, N = 5): 183 ng·h/mL
- AUC24hr, Min (Day 1, 1 mg, N = 5): 102 ng·h/mL
- AUCTlast, Max (Day 1, 1 mg, N = 5): 582 ng·h/mL
- AUCTlast, Min (Day 1, 1 mg, N = 5): 367 ng·h/mL
- CL/F, GeoMean (Day 1, 1 mg, N = 5): 1.79 L/h
- CL/F, Max (Day 1, 1 mg, N = 5): 2.27 L/h
- CL/F, Mean (Day 1, 1 mg, N = 5): 1.82 L/h
- CL/F, Median (Day 1, 1 mg, N = 5): 1.87 L/h
SMILES: CC/C(=C(\c1ccc(O)cc1)c1ccc(OCCNC)cc1)c1ccccc1 [(Z)-Endoxifen, (Z)-4-(1-(4-(2-(methylamino)ethoxy)phenyl)-2-phenylbut-1-enyl) phenol]
